Experimental data reported in PubChem BioAssay AID1963856 (Molecular Pharmacology Branch, DTP, NCI, 2024).

Test system: LG0567-F671-PDC KRAS tumor spheroid viability
Test: Anticancer human tumor LG0567-F671-PDC patient-derived lung adenocarcinoma cell line growth inhibition [KRAS2]
Conditions: spheroids with HUVEC and MSC; for IC50: curve of first compound; for viability, T/C: stronger effect = lower value
Summary of the method: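 KRAS-mutant tumor cells were grown as spheroids with HUVEC endothelial cells and human MSCs as stroma. Targeted agents were tested alone and with KRAS pathway inhibitors. Doses started at or near clinical Cmax, or 10 microM, descending half-log.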

[1] = second compound 0.1 µM, first compound 0.0316 µM
[2] = second compound 0.1 µM, first compound 0.1 µM
[3] = second compound 0.1 µM, first compound 0.316 µM
[4] = second compound 0.1 µM, first compound 1 µM
[5] = second compound 0.1 µM, first compound 3.16 µM
[6] = second compound 0.1 µM, first compound 10 µM
[7] = second compound 0.316 µM, first compound 0.0316 µM
[8] = second compound 0.316 µM, first compound 0.1 µM
[9] = second compound 0.316 µM, first compound 0.316 µM
[10] = second compound 0.316 µM, first compound 1 µM
[11] = second compound 0.316 µM, first compound 3.16 µM
[12] = second compound 0.316 µM, first compound 10 µM
[13] = second compound 1 µM, first compound 0.0316 µM
[14] = second compound 1 µM, first compound 0.1 µM
[15] = second compound 1 µM, first compound 0.316 µM
[16] = second compound 1 µM, first compound 1 µM
[17] = second compound 1 µM, first compound 3.16 µM
[18] = second compound 1 µM, first compound 10 µM
[19] = second compound 3.16 µM, first compound 0.0316 µM
[20] = second compound 3.16 µM, first compound 0.1 µM
[21] = second compound 3.16 µM, first compound 0.316 µM
[22] = second compound 3.16 µM, first compound 1 µM
[23] = second compound 3.16 µM, first compound 3.16 µM
[24] = second compound 3.16 µM, first compound 10 µM
[25] = second compound 10 µM, first compound 0.0316 µM
[26] = second compound 10 µM, first compound 0.1 µM
[27] = second compound 10 µM, first compound 0.316 µM
[28] = second compound 10 µM, first compound 1 µM
[29] = second compound 10 µM, first compound 3.16 µM
[30] = second compound 10 µM, first compound 10 µM
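Note: drug exposure lasted seven days after spheroids formed for three days.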
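Throughout, for viability, T/C: 100% = DMSO vehicle control viability.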

| Structure (SMILES) | IC50 (second compound 0.1 µM) [nM] | IC50 (second compound 0.316 µM) [nM] | IC50 (second compound 1 µM) [nM] | IC50 (second compound 3.16 µM) [nM] | viability, T/C [1] [%] | viability, T/C [2] [%] | viability, T/C [3] [%] | viability, T/C [4] [%] | viability, T/C [5] [%] | viability, T/C [7] [%] | viability, T/C [8] [%] | viability, T/C [9] [%] | viability, T/C [10] [%] | viability, T/C [11] [%] | viability, T/C [13] [%] | viability, T/C [14] [%] | viability, T/C [15] [%] | viability, T/C [16] [%] | viability, T/C [17] [%] | viability, T/C [19] [%] | other results |
| --- | --- | --- | --- | --- | --- | --- | --- | --- | --- | --- | --- | --- | --- | --- | --- | --- | --- | --- | --- | --- | --- |
| CC1(C)CCC(CN2CCN(c3ccc(C(=O)NS(=O)(=O)c4ccc(NCC5CCOCC5)c([N+](=O)[O-])c4)c(Oc4cnc5[nH]ccc5c4)c3)CC2)=C(c2ccc(Cl)cc2)C1 + CC1OCC2(CCN(c3cnc(Sc4ccnc(N)c4Cl)c(N)n3)CC2)C1N | < 31.6 | < 31.6 | < 31.6 | < 31.6 | 47 | 44.4 | 41.8 | 39.1 | 15.4 | 42.2 | 31.9 | 33.4 | 32.9 | 9.77 | 27.8 | 26.2 | 27 | 27.1 | 8.05 | 22.9 | IC50 (second compound 10 µM): < 31.6 nM; viability, T/C [6]: 3.67%; viability, T/C [12]: 2.77%; viability, T/C [18]: 1.79%; viability, T/C [20]: 24%; viability, T/C [21]: 18.3%; viability, T/C [22]: 16.1%; viability, T/C [23]: 2.78%; viability, T/C [24]: 2.97%; viability, T/C [25]: 12.2%; viability, T/C [26]: 15.4%; viability, T/C [27]: 11.1%; viability, T/C [28]: 10.7%; viability, T/C [29]: 2.4%; viability, T/C [30]: 0.54% |
| CC1COCCN1c1cc(-c2ccnn2C)c2ccnc(-c3ccn[nH]3)c2n1 (stereo not given) + CNCc1ccccc1-c1csc(C(C)Nc2nc(C)nc3cc(OC)c(OC)cc23)c1 | > 3160 | 372 | 41.4 | 160 | 74.4 | 60.2 | 58.9 | 48.6 | 54 | 77.7 | 60.6 | 50.6 | 46 | 49.2 | 50.7 | 42.6 | 41.4 | 34.7 | 33.4 | 58.5 | IC50 (second compound 10 µM): < 10 nM; viability, T/C (second compound 0.1 µM, first compound 0.01 µM): 87.1%; viability, T/C (second compound 0.316 µM, first compound 0.01 µM): 85.9%; viability, T/C (second compound 1 µM, first compound 0.01 µM): 68%; viability, T/C (second compound 3.16 µM, first compound 0.01 µM): 65.6%; viability, T/C [20]: 61.6%; viability, T/C [21]: 29.8%; viability, T/C [22]: 33.2%; viability, T/C [23]: 36.2%; viability, T/C (second compound 10 µM, first compound 0.01 µM): 0.18%; viability, T/C [25]: 0.17%; viability, T/C [26]: 0.15%; viability, T/C [27]: 0.17%; viability, T/C [28]: 0.74%; viability, T/C [29]: 0.24% |
| Cn1nccc1Nc1nccc(-c2cc3c(s2)C(C)(C)N(CCN2CCOCC2)C3=O)n1 + C=CC(=O)N1CCN(c2nc(OCC3CCCN3C)nc3c2CCN(c2cccc4cccc(C)c24)C3)CC1CC#N | < 31.6 | < 31.6 | < 31.6 | < 31.6 | 26.8 | 31.8 | 28 | 23.3 | 17.8 | 33.2 | 25.8 | 21.2 | 35.5 | 16.8 | 29.6 | 26.9 | 33.1 | 26.5 | 15.3 | 29.3 | IC50 (second compound 0.0316 µM): < 31.6 nM; viability, T/C (second compound 0.0316 µM, first compound 0.0316 µM): 34.5%; viability, T/C (second compound 0.0316 µM, first compound 0.1 µM): 28.7%; viability, T/C (second compound 0.0316 µM, first compound 0.316 µM): 39.7%; viability, T/C (second compound 0.0316 µM, first compound 1 µM): 19.2%; viability, T/C (second compound 0.0316 µM, first compound 3.16 µM): 19.9%; viability, T/C (second compound 0.0316 µM, first compound 10 µM): 19.7%; viability, T/C [6]: 21.1%; viability, T/C [12]: 19.1%; viability, T/C [18]: 19.4%; viability, T/C [20]: 29.1%; viability, T/C [21]: 28.1%; viability, T/C [22]: 23.2%; viability, T/C [23]: 21.7%; viability, T/C [24]: 24.4% |
| Cn1nccc1Nc1nccc(-c2cc3c(s2)C(C)(C)N(CCN2CCOCC2)C3=O)n1 + C=CC(=O)N1CCN(c2nc(=O)n(-c3c(C)ccnc3C(C)C)c3nc(-c4c(O)cccc4F)c(F)cc23)C(C)C1 | < 31.6 | < 31.6 | < 31.6 | < 31.6 | 21.2 | 23.1 | 19.2 | 20.8 | 14.1 | 22.2 | 19.8 | 19.9 | 17.8 | 15.6 | 23.1 | 21.8 | 21 | 20.9 | 15 | 22.2 | IC50 (second compound 10 µM): < 31.6 nM; viability, T/C [6]: 16.3%; viability, T/C [12]: 17.2%; viability, T/C [18]: 20.8%; viability, T/C [20]: 18.1%; viability, T/C [21]: 20.3%; viability, T/C [22]: 12.2%; viability, T/C [23]: 14%; viability, T/C [24]: 20.9%; viability, T/C [25]: 20.5%; viability, T/C [26]: 19.2%; viability, T/C [27]: 14.5%; viability, T/C [28]: 12.2%; viability, T/C [29]: 15.2%; viability, T/C [30]: 26.8% |
